According to patent US10065990B2, “Cyclic peptide compound, and preparation method, pharmaceutical composition and use thereof” (HANGZHOU GUANYU BIO-MEDICAL CO., LTD, priority 2013, dated 2018):
Read-outs that look alike come from different tables or passages of the source.

How the values were obtained:
[1] = system: Huh-7 (human hepatoma cells); test: MTT cancer cell growth inhibition; format: cell-based; conditions: MTT, 72 hours incubation, Huh-7 cells, read-out: GI50 Huh-7
In short: (§1)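 MTT viability, 570 nm, GI50. Cells 1500/well; compound 72 h at final 10^−5–10^−10 M in triplicate.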

[2] = system: BGC-823 (human gastric cancer cells); test: MTT cancer cell growth inhibition; format: cell-based; conditions: MTT
In short: as §1

[3] = system: Bel-7402 (human hepatoma cells); test: MTT cancer cell growth inhibition; format: cell-based; conditions: MTT, 72 hours incubation, Bel-7402 cells, read-out: GI50 Bel-7402
In short: as §1

[4] = system: A549 (human lung cancer cells); test: MTT cancer cell growth inhibition; format: cell-based; conditions: MTT
In short: as §1

[5] = system: MCF-7 (human breast cancer cells); test: MTT cancer cell growth inhibition; format: cell-based
In short: as §1

[6] = system: MOLT-4 (human acute lymphoblastic leukemia cells); test: MTT cancer cell growth inhibition; format: cell-based; conditions: MTT
In short: as §1

[7] = system: PANC-1 (Pac-1, human pancreatic cancer cells); test: MTT cancer cell growth inhibition; format: cell-based; conditions: MTT
In short: as §1

[8] = system: U937 (human leukemia cells); test: MTT cancer cell growth inhibition; format: cell-based; conditions: MTT
In short: as §1

[9] = system: lncap (prostate cancer cells); test: MTT cancer cell growth inhibition; format: cell-based; conditions: MTT
In short: as §1

[10] = system: DU145 (human prostate cancer cells); test: MTT cancer cell growth inhibition; format: cell-based; conditions: MTT
In short: as §1

HDAC1 = HDAC1 (Homo sapiens, UniProt Q13547); test: HDAC biochemical activity measurement (fluorescent substrate deacetylation);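 also: fluorogenic acetyl-lysine substrate (20 µM) deacetylated by HDAC1, then developer releases fluorophore read at 360 nm excitation and 460 nm emission, inhibitor incubated 30 min at 37 °C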
HDAC1, sequence (Q13547 whole entry, species assumed): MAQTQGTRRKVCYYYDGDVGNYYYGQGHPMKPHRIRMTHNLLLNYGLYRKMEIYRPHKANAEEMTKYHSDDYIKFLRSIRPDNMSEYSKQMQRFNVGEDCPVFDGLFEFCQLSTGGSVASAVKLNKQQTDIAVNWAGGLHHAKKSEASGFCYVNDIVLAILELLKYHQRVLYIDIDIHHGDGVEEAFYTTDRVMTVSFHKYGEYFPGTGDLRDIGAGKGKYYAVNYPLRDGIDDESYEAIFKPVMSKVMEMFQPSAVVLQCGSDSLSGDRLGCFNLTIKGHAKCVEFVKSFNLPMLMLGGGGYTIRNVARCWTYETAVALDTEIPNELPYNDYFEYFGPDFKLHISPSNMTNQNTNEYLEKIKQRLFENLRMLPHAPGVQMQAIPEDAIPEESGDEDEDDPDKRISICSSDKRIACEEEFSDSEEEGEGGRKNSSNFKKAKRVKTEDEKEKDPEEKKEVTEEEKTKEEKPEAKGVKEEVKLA
Method: (§2) The chemical activity of the compound is determined according to the degree of deacetylation inhibition of the HDAC enzyme. This experiment measured the degree of deacetylation related to tumor proliferation and metastasis of HDAC1, HDAC2, HDAC3, HDAC8, HDAC11 five subtypes HDAC enzymes. After the substrate containing an acetylated lysine side chain and HDAC enzyme are labeled with a fluorescent label, the fluorescent substrate is de acetyl. The fluorescent labeled substrate is cleaved by the enzyme, and the fluorescent substance is released, which generates 460 nm emission light under the excitation of 360 nm light.
(§3) HDAC substrate was diluted with reaction buffer to 200M (reaction concentration of 20M), the HDAC enzyme was diluted to the appropriate concentration, then added different concentrations of the test compounds and acted at 37° C. 30 minutes, and then added the same volume of 2-times concentration substrate developing solution (developer), incubated at room temperature for 15 minutes.

HDAC8 = biological target: T1, HDAC8 (Homo sapiens, UniProt Q9BY41); test: as above; conditions: 37° C. 30 minutes
T1 sequence (Q9BY41 1-377): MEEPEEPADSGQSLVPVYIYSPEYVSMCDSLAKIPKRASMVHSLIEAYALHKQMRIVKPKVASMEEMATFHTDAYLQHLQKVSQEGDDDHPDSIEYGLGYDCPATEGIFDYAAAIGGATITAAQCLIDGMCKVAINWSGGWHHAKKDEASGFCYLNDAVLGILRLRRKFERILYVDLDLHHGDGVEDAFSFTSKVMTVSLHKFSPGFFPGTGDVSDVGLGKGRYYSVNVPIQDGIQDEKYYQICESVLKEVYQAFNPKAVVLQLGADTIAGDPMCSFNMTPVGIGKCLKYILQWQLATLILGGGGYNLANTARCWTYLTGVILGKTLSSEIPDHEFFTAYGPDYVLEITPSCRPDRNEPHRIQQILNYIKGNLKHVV

HDAC3 = HDAC3 (Homo sapiens, UniProt O15379); test: as above; conditions: read-out: IC50 HDAC3; HDAC3; 37° C. 30 minutes;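 also: fluorogenic acetyl-lysine substrate (20 µM) deacetylated by HDAC3, then developer added for 15 min at room temperature, release of fluorophore read at excitation 360 nm, emission 460 nm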
HDAC3, sequence (O15379 whole entry, species assumed): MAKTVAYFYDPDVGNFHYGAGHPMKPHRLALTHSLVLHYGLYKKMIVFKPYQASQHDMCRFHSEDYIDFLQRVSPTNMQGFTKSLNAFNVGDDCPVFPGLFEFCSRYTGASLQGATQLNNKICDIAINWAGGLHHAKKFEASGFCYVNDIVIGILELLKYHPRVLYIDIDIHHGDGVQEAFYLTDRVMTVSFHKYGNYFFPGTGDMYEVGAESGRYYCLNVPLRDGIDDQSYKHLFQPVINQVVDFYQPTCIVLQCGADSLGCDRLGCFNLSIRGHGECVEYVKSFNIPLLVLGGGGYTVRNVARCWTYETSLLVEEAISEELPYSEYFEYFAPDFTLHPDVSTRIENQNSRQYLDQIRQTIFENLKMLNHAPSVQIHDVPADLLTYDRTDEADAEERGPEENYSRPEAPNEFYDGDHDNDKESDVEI
HDAC3, sequence (Q9Y618 395-489 partner limits assumed, species assumed): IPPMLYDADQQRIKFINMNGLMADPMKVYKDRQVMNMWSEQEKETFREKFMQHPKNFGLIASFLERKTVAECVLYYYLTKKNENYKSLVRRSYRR
Method: as §2, §3

[11] = Homo sapiens, BGC-823, 72 h, 72 hours incubation, read-out: GI50 BG
[12] = Homo sapiens, A549, 72 h, 72 hours incubation, read-out: GI50 A54
[13] = Homo sapiens, MCF7, 72 h, 72 hours incubation, read-out: GI50 MCF
[14] = Homo sapiens, MOLT-4, 72 h, 72 hours incubation, read-out: GI50 Mol
[15] = Homo sapiens, PANC-1, 72 h, 72 hours incubation, read-out: GI50 PAN
[16] = Homo sapiens, U-937, 72 h, 72 hours incubation, read-out: GI50 U93
[17] = Homo sapiens, LNCaP, 72 h, 72 hours incubation, read-out: GI50 lnca
[18] = Homo sapiens, DU-145, 72 h, 72 hours incubation, read-out: GI50 Du1
[19] = HDAC1, 37° C. 30 minutes, read-out: IC50 HDAC1
[20] = Table 3, column C, read-out: IC50 HDAC1, C (six-membered ring with substituents)

Compound	GI50 ([1]; Homo sapiens, Huh-7, 72 h) [µM]	GI50 [2, 11] [µM]	GI50 ([3]; Homo sapiens, Bel-7402, 72 h) [µM]	GI50 [4, 12] [µM]	GI50 [5, 13] [µM]	GI50 [6, 14] [µM]	GI50 [7, 15] [µM]	GI50 [8, 16] [µM]	GI50 [9, 17] [µM]	GI50 [10, 18] [µM]	IC50 (HDAC1; [19]) [µM]	IC50 (HDAC1; [20]) [µM]	IC50 (HDAC8) [µM]	IC50 (HDAC3) [µM]	GI50 [1] [µM]	GI50 [3] [µM]	further results
C/C=C1\NC(=O)c2cc(F)cc(n2)CNC(=O)C[C@@H](/C=C/CCSC(=O)CC)OC(=O)[C@H](C(C)C)NC1=O [Compound 46]	0.035	0.04	0.052	0.05	0.04	0.03	0.05	0.03	0.03	0.03	0.022	0.022	0.035	0.025			
C/C=C1\NC(=O)c2cc(F)cc(n2)CNC(=O)C[C@@H](/C=C/CCSC(=O)CCCC)OC(=O)[C@H](C(C)C)NC1=O [Compound 40]	0.035	0.07	0.074	0.04	0.05	0.03	0.07	0.04	0.03	0.04	0.043	0.043	0.045	0.042			
C/C=C1\NC(=O)c2cccc(n2)CNC(=O)C[C@@H](/C=C/CCSC(=O)CCCCCCC)OC(=O)[C@H](C(C)(C)C)NC1=O [Compound 237]	0.049		0.042								0.072		0.043	0.035			GI50 ([2]; Homo sapiens, BGC-823, 72 h, BGC-823 cells, 72 hours incubation, read-out: GI50 BG): 0.17 µM; GI50 ([2]; Homo sapiens, BGC-823, 72 h, 72 hours, present invention, read-out: GI50 BGC823, a): 0.17 µM; GI50 ([4]; Homo sapiens, A549, 72 h, A549 cells, 72 hours incubation, read-out: GI50 A54): 0.42 µM; GI50 ([4]; Homo sapiens, A549, 72 h, 72 hours, present invention, read-out: GI50 A549, a): 0.42 µM; GI50 ([5]; Homo sapiens, MCF7, 72 h, 72 hours, present invention, read-out: GI50 MCF7, a): 0.35 µM; GI50 ([5]; Homo sapiens, MCF7, 72 h, MCF-7 cells, 72 hours incubation, read-out: GI50 MCF): 0.35 µM; GI50 ([6]; Homo sapiens, MOLT-4, 72 h, MOLT-4 cells, 72 hours incubation, read-out: GI50 Mol): 0.97 µM; GI50 ([6]; Homo sapiens, MOLT-4, 72 h, 72 hours, present invention, read-out: GI50 Molt-4, a): 0.97 µM; GI50 ([7]; Homo sapiens, PANC-1, 72 h, 72 hours, present invention, read-out: GI50 PANC-1, a): 0.93 µM; GI50 ([7]; Homo sapiens, PANC-1, 72 h, PANC-1 cells, 72 hours incubation, read-out: GI50 PAN): 0.93 µM; GI50 ([8]; Homo sapiens, U-937, 72 h, 72 hours, present invention, read-out: GI50 U937, a): 0.11 µM; GI50 ([8]; Homo sapiens, U-937, 72 h, U937 cells, 72 hours incubation, read-out: GI50 U93): 0.11 µM; GI50 ([9]; Homo sapiens, LNCaP, 72 h, 72 hours, present invention, read-out: GI50 lncap, a): 0.94 µM; GI50 ([9]; Homo sapiens, LNCaP, 72 h, lncap cells, 72 hours incubation, read-out: GI50 lnca): 0.94 µM; GI50 ([10]; Homo sapiens, DU-145, 72 h, DU145 cells, 72 hours incubation, read-out: GI50 Du1): 0.04 µM; GI50 ([10]; Homo sapiens, DU-145, 72 h, 72 hours, present invention, read-out: GI50 Du145, a): 0.04 µM; IC50 (HDAC1; Table 2, read-out: IC50 HDAC1, a (compounds of the present invention)): < 0.08 µM
C/C=C1\NC(=O)c2nc(F)cc(n2)CNC(=O)C[C@@H](/C=C/CCSC(C)=O)OC(=O)[C@H](C(C)C)NC1=O [Compound 98]											0.061		0.061	0.062	0.028	0.043	GI50 ([2]; 72 hours incubation, read-out: GI50 BG): 0.05 µM; GI50 ([4]; 72 hours incubation, read-out: GI50 A54): 0.6 µM; GI50 ([5]; 72 hours incubation, read-out: GI50 MCF): 0.03 µM; GI50 ([6]; 72 hours incubation, read-out: GI50 Mol): 0.02 µM; GI50 ([7]; 72 hours incubation, read-out: GI50 PAN): 0.08 µM; GI50 ([8]; 72 hours incubation, read-out: GI50 U93): 0.03 µM; GI50 ([9]; 72 hours incubation, read-out: GI50 lnca): 0.02 µM; GI50 ([10]; 72 hours incubation, read-out: GI50 Du1): 0.04 µM
C/C=C1\NC(=O)c2cc(SC)cc(n2)CNC(=O)C[C@@H](/C=C/CCSC(C)=O)OC(=O)[C@H](C(C)C)NC1=O [Compound 224]											0.184		0.752	0.563	0.036	0.023	GI50 ([2]; BGC-823 cells, 72 hours incubation, read-out: GI50 BG): 0.03 µM; GI50 ([4]; A549 cells, 72 hours incubation, read-out: GI50 A54): 0.05 µM; GI50 ([5]; MCF-7 cells, 72 hours incubation, read-out: GI50 MCF): 0.04 µM; GI50 ([6]; MOLT-4 cells, 72 hours incubation, read-out: GI50 Mol): 0.03 µM; GI50 ([7]; PANC-1 cells, 72 hours incubation, read-out: GI50 PAN): 0.06 µM; GI50 ([8]; U937 cells, 72 hours incubation, read-out: GI50 U93): 0.03 µM; GI50 ([9]; lncap cells, 72 hours incubation, read-out: GI50 lnca): 0.03 µM; GI50 ([10]; DU145 cells, 72 hours incubation, read-out: GI50 Du1): 0.05 µM
